Laboratory results from US20220169637A1, “SOLID FORMS OF ENCEQUIDAR MESYLATE AND PROCESSES THEREOF” (DR. REDDY'S LABORATORIES LIMITED, priority 2019, published 2022).
Structures can show the parent of a compound that is named as a salt.

Test: Stress stability of crystalline Form EM1 (moisture content, XRPD pattern)
Format: physicochemical
Method: In an embodiment, the open sample of Form EM1 is stable at 25° C. for at least 24 hours. In an embodiment, the open sample of Form EM1 is stable under heating in air tray drier at 60° C. for at least 24 hours. In an embodiment, the open sample of Form EM1 is stable at 40° C. and 75% RH condition for at least 24 hours. In an embodiment, the open sample of Form EM1 is stable at 25° C. and 85% RH for at least 24 hours. In an embodiment, the open sample of Form EM1 is stable under UV exposure for at least 16 hours.

- Moisture content (%) (Initial): 6.95%
- XRPD pattern (Initial): Form EM1
- Moisture content (%) (Open 25° C., 24 hours): 5.94%
- XRPD pattern (Open 25° C., 24 hours): Form EM1
- Moisture content (%) (Open 40° C./75% RH, 24 hours): 5.71%
- XRPD pattern (Open 40° C./75% RH, 24 hours): Form EM1
- Moisture content (%) (Open 60° C., 24 hours): 5.5%
- XRPD pattern (Open 60° C., 24 hours): Form EM1
- Moisture content (%) (UV exposed, 24 hours): 6.26%
- XRPD pattern (UV exposed, 24 hours): Form EM1
- Time stable (open sample at 25° C.): at least 24 hours
- Time stable (open sample at 25° C. and 85% RH): at least 24 hours
- Time stable (open sample at 40° C. and 75% RH): at least 24 hours
- Time stable (open sample under UV exposure): at least 16 hours
- Time stable (open sample, heating in air tray drier at 60° C.): at least 24 hours
- Stability under tabulated stress conditions (stress conditions for 24 hours): found to be stable
- Change in weight or moisture content and X-ray diffraction patterns (stressed samples, FIG. 5): No significant change
Structure (SMILES): COc1cc2c(cc1OC)CN(CCc1ccc(-n3nnc(-c4cc(OC)c(OC)cc4NC(=O)c4cc(=O)c5ccccc5o4)n3)cc1)CC2 [Form EM1, Encequidar mesylate]
